Columns and labels:
human κ-opioid receptor = human κ-opioid receptor (Homo sapiens, UniProt P41145); type: cell-based
male Sprague–Dawley rats [1] = assay: Rat spontaneous locomotor activity; type: in vivo; conditions: acute ip; 2 1.0 mg/kg, 24 1.0 mg/kg, 36 0.3 mg/kg; total ambulatory counts over 60 min
male Sprague–Dawley rats [2] = assay: Rat reinstatement assay: cocaine-prime-induced reinstatement of drug seeking; type: in vivo; conditions: for inactive lever pressing during self-administration, extinction and reinstatement: 2 1.0 mg/kg, 24 1.0 mg/kg, 36 0.3 mg/kg; for dose required to significantly reduce active lever responses: ip, cocaine-prime-induced reinstatement, rat
human μ-opioid receptor = human μ-opioid receptor (Homo sapiens, UniProt P35372); assay: Inhibition of forskolin-induced cAMP accumulation in MOR-CHO cells; type: cell-based; conditions: selectivity for KOR
male Sprague–Dawley rats [3] = conditions: rat, in vivo; cited from earlier work

human μ-opioid receptor, sequence (P35372 whole entry): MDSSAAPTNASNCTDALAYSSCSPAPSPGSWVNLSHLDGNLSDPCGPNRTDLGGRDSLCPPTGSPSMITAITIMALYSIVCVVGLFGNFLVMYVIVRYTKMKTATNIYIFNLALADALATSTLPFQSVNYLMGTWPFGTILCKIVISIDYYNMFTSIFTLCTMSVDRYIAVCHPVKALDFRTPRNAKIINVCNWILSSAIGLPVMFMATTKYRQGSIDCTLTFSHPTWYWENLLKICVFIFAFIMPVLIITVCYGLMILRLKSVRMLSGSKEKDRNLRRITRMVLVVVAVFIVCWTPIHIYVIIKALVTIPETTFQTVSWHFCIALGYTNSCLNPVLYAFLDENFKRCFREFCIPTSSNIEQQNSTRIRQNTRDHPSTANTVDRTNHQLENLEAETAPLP
human κ-opioid receptor, sequence (P41145 whole entry): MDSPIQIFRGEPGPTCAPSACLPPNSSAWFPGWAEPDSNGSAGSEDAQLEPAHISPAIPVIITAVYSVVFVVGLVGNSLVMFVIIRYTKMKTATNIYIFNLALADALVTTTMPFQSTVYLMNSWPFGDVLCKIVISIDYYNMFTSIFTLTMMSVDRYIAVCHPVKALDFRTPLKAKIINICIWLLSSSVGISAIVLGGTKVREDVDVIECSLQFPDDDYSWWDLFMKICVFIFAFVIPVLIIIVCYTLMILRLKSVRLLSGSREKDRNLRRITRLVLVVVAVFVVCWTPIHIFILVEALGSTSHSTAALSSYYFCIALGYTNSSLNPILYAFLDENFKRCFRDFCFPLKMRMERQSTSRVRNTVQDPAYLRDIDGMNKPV

SMILES	effect on spontaneous locomotor activity vs vehicle-treated animals (male Sprague–Dawley rats [1])	inactive lever pressing during self-administration, extinction and reinstatement (male Sprague–Dawley rats [2])	dose required to significantly reduce active lever responses (male Sprague–Dawley rats [2])	activity at the MOR (human μ-opioid receptor)	further results
COC(=O)[C@@H]1C[C@H](OC(C)=O)C(=O)[C@H]2[C@@]1(C)CC[C@H]1C(=O)O[C@H](c3ccoc3C=O)C[C@]21C [Compound 49, (2S,4aR,6aR,7R,9S,10aS,10bR)-Methyl 9-Acetoxy-2-(2-formylfuran-3-yl)-6a,10b-dimethyl-4,10-dioxododecahydro-1H-benzo[f]isochromene-7-carboxylate]	–	–	–	–	times less potent than 29 (KOR) (human κ-opioid receptor): approximately 7 times
COC(=O)[C@@H]1C[C@H](OC(C)=O)C(=O)[C@H]2[C@@]1(C)CC[C@H]1C(=O)O[C@H](c3ccoc3Br)C[C@]21C [Compound 2]	no significant difference	no significant changes	0.3 mg/kg	no activity at the MOR	–
COC(=O)[C@@H]1C[C@H](OC(C)=O)C(=O)[C@H]2[C@@]1(C)CC[C@H]1C(=O)O[C@H](c3ccoc3C#N)C[C@]21C [Compound 50, (2S,4aR,6aR,7R,9S,10aS,10bR)-Methyl 9-Acetoxy-2-(2-cyanofuran-3-yl)-6a,10b-dimethyl-4,10-dioxododecahydro-1H-benzo[f]isochromene-7-carboxylate]	–	–	–	–	times less potent than 36 (KOR) (human κ-opioid receptor): more than 500 times
COC(=O)[C@@H]1C[C@H](OC(C)=O)C(=O)[C@H]2[C@@]1(C)CC[C@H]1C(=O)O[C@H](c3ccoc3C)C[C@]21C [Compound 24]	no significant difference	no significant changes	–	no activity at the MOR	–
COC(=O)[C@@H]1C[C@H](OC(C)=O)C(=O)[C@H]2[C@@]1(C)CC[C@H]1C(=O)O[C@H](c3ccoc3)C[C@]21C [Compound 1, Salvinorin A]	–	–	–	–	effect on drug-seeking behavior and spontaneous locomotor activity (male Sprague–Dawley rats [3]): reduces drug-seeking behavior at a dose that does not affect spontaneous locomotor activity
C#Cc1occc1[C@@H]1C[C@]2(C)[C@H]3C(=O)[C@@H](OC(C)=O)C[C@@H](C(=O)OC)[C@]3(C)CC[C@H]2C(=O)O1 [Compound 36]	no significant difference	no significant changes	0.1 mg/kg	no activity at the MOR	–

Source: article PMC4281103 (Journal of Medicinal Chemistry, 2014)
